According to publication PMC12090182, “Repurposing of the RIPK1-Selective Benzo[1,4]oxazepin-4-one Scaffold for the Development of a Type III LIMK1/2 Inhibitor” (ACS Chemical Biology, 2025):
Where “and” joins values, the source holds several entries; their conditions need not be identical. Equal entries are not always repeated. Where two headings read alike, the source gives them in different places.

Columns and labels:
CSNK2A2 = CSNK2A2 (Homo sapiens, UniProt P19784); test: DSF selectivity screening; type: binding; details: 10 μM compound
Procedure: The assay was performed as previously described.[29],[35] Briefly, recombinant protein kinase domains at a concentration of 2 μM were mixed with a 10 μM compound in a buffer containing 20 mM HEPES, pH 7.5, and 500 mM NaCl. SYPRO Orange (5000×, Invitrogen) was added as a fluorescence probe (1 μL per mL). Subsequently, temperature-dependent protein unfolding profiles were measured using a QuantStudio 5 real-time PCR machine (Thermo Fisher). Excitation and emission filters were set to 465 and 590 nm, respectively. The temperature was raised with a step rate of 3 °C per minute. Data points were analyzed with internal software (Thermal Shift Software version 1.4, Thermo Fisher) using the Boltzmann equation to determine the inflection point of the transition curve (Table S4).

RIPK1 = target: T1, RIPK1 (Homo sapiens, UniProt Q13546); test: NanoBRET cellular target engagement; type: cell-based; details: RIPK1, HEK293T cells
T1 construct: full-length LIMK1/2, RIPK1, BTK, and LRRK2 cloned in a frame in a NanoLuc-vector (Promega); host or cells: HEK293T
T1 sequence (Q13546 1-671): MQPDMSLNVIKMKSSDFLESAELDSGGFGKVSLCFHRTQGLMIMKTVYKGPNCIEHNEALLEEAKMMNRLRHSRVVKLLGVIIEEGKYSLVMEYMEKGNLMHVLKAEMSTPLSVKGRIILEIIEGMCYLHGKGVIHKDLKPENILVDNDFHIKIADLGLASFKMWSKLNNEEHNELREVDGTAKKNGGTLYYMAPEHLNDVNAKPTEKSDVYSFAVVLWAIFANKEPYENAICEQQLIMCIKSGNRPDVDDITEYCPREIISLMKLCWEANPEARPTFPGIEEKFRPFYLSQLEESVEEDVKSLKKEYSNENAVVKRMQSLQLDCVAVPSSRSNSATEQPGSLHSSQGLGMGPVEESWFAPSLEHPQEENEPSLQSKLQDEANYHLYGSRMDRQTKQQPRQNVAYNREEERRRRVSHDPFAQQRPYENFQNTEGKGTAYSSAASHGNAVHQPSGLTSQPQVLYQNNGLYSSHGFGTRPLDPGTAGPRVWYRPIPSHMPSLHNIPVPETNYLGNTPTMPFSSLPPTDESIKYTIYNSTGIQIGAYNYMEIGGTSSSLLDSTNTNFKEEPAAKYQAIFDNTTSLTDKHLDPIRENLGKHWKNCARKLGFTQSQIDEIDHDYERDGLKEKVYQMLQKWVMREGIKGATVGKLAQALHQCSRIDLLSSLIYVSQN
Procedure: The assay was performed as described previously.[31],[32] In brief, full-length LIMK1/2, RIPK1, BTK, and LRRK2 cloned in a frame in a NanoLuc-vector (Promega) were transfected into HEK293T cells (ATCC CRL-1573) using FuGENE HD (Promega, E2312), and proteins were allowed to express for 20 h. The serially diluted inhibitor and NanoBRET Kinase Tracer (Promega) used at the previously determined Tracer KD,app (Table S1) were pipetted into white 384-well plates (Greiner 781 207) using an ECHO 550 acoustic dispenser (Labcyte). The corresponding transfected cells were added and reseeded at a density of 2 × 10^5 cells/mL after trypsinization and resuspension in Opti-MEM without phenol red (Life Technologies). The system was allowed to equilibrate for 2 h at 37 °C and 5% CO2 prior to BRET measurements. To measure BRET, a NanoBRET Nano-Glo substrate and an extracellular NanoLuc inhibitor (Promega, N2160) were added as per the manufacturer's protocol, and filtered luminescence was measured on a PHERAstar plate reader (BMG Labtech) equipped with a luminescence filter pair (a 450 nm BP filter (donor) and a 610 nm LP filter (acceptor)). Competitive displacement data were then plotted using GraphPad Prism 10 software using a normalized three-parameter curve fit with the following equation: Y = 100/( [drawing 1] ).

[1] = system: cofilin phosphorylation (LIMK1/2 substrate); test: Western blot of cofilin phosphorylation in LN-229 cells; type: cell-based, human; details: 6 h
Procedure: LN-229, a human glioblastoma cell line, was cultured until passage 17 in Dulbecco’s modified Eagle’s medium (DMEM) with GlutaMAX, 10% fetal bovine serum (FBS), and 1% penicillin/streptomycin. Cells were maintained in an incubator with 5% CO2 at 37 °C. For the treatment, 3 × 10^5 cells were plated and treated with the tested compounds at the indicated concentrations and DMSO as the control for 6 h. The cells were then lysed using RIPA buffer (50 mM Tris HCl pH 7.4, 150 mM NaCl, 1% Triton X-100, 1% NaDOC, 0.1% SDS, and 1 mM EDTA), freshly supplemented with protease and phosphatase inhibitor cocktails (Sigma-Aldrich, Darmstadt, Germany). After a 1 h incubation on ice, the lysates were centrifuged for 30 min at 250g, and the protein-containing supernatant was collected. The protein concentrations were determined using the protein assay dye reagent concentrate (Bradford, Bio-Rad, Hercules, CA, USA) and prediluted protein assay standard bovine serum albumin (BSA) set (Thermo Fisher Scientific, Darmstadt, Germany). Then, equal amounts of protein were mixed with a Roti-Load 1 dye (Carl Roth, Karlsruhe, Germany) and 4× Laemmli buffer (Bio-Rad, Hercules, CA, USA), denatured at 95 °C, and run on NuPAGE 4–12% bis-Tris gels (Thermo Fisher Scientific, Darmstadt, Germany). Proteins were blotted on methanol-activated PVDF transfer membranes (Thermo Fisher Scientific, Darmstadt, Germany) using the wet transfer method with transfer buffer (Thermo Fisher Scientific, Darmstadt, Germany) and 20% methanol. Subsequently, the membranes were blocked with 5% milk or 3% BSA in 0.1% TBS-T for 1 h at RT and incubated overnight at 4 °C with primary antibodies: GAPDH (catalog no. 2118, Cell Signaling Technology, MA, USA, 1:1000 dilution), LIMK1 (catalog no. 3842, Cell Signaling Technology, 1:1000 dilution), LIMK2 (catalog no. 3845, 1:500 dilution), p-cofilin (catalog no. 3313, Cell Signaling Technology, 1:1000 dilution), cofilin (catalog no. 5175, Cell Signaling Technology, 1:1000 dilution). […]

FLT3(ITD,F691L) = type: binding; details: 1000 nM
[2] = target: ABL1(T315I)-phosphorylated (Homo sapiens, UniProt P00519, T315I); test: biochemical; type: binding; details: compound concentration 100 nM; Entrez ABL1; read-out: Percent Control

Sequence of CSNK2A2 (P19784 1-334): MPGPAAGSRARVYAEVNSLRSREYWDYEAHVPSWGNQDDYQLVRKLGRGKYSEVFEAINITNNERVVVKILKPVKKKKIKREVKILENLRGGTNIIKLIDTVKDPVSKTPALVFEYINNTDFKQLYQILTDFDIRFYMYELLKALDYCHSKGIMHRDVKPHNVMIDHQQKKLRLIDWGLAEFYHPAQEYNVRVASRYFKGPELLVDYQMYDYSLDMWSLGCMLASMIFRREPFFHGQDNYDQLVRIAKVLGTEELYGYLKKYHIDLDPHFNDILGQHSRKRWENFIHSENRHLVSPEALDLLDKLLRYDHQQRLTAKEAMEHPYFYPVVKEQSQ

Structure (SMILES)	ΔTm at 10 µM (CSNK2A2)	EC50 (RIPK1; read-out: EC50 (NanoBRET))	cofilin phosphorylation (Western blot) ([1]; 5 μM)	EC50 (RIPK1; read-out: EC50 (NanoBRET), Figure 4C)	cofilin phosphorylation (Western blot) ([1]; 100 nM)	cofilin phosphorylation (Western blot) ([1]; 1 μM and higher concentrations)	Percent Control (FLT3(ITD,F691L))	remaining activity at 0.1 µM [2]
CN1C(=O)[C@@H](N2CCc3c(C(N)=O)nn(Cc4ccccc4)c3C2=O)COc2ccccc21 [Compound 11]	2.2 °C	3500 nM	no effect	–	–	–	–	–
CN1C(=O)[C@@H](N2CCc3c(nn(Cc4ccccc4)c3C(N)=O)C2=O)COc2cc(Cl)ccc21 [Compound 10, (S)-2-benzyl-6-(8-chloro-5-methyl-4-oxo-2,3,4,5-tetrahydrobenzo[b][1,4]oxazepin-3-yl)-7-oxo-4,5,6,7-tetrahydro-2H-pyrazolo[3,4-c]pyridine-3-carboxamide]	2.3 °C	6.3 nM and 7.8 nM	–	7.85 nM	weaker levels of phosphorylation	almost completely abrogated	100%	72%
